Results published in patent US11267831B2, “EF-Tu-binding metal-containing antibiotic” (Ruhr-Universitaet Bochum, priority 2017, dated 2022).

System: B. subtilis
Assay: Proteome analysis via 2D-PAGE with 35S-methionine labelling of newly synthesized proteins
Assay type: cell-based, Bacillus subtilis
Conditions: 3 μg/ml DS50, 0.15 μg/ml nocathiacin I, 8 μg/ml GE2270 A or 50 μg/ml kirromycin, 15 min
Method: B. subtilis was grown to an OD500 of 0.35 in BMM and treated with 3 μg/ml DS50 or 12 μg/ml biotin-DS50 for 15 min or left untreated as control. The following concentrations were used for the reference antibiotics: 0.15 μg/ml nocathiacin I, 8 μg/ml GE2270 A or 50 μg/ml kirromycin. Radioactive labelling of newly synthesized proteins during antibiotic treatment with ^35S-methionine and 2D-PAGE analysis were essentially performed as described^38.
Protein spots were cut out of the gel and decolorized twice in a washing solution (20 mM ammonium bicarbonate, 30% acetonitrile). Disulfide bridges in proteins from gel pieces obtained from 1D-PAGE gels were reduced with 10 mM DTT in wash solution at 60° C. for 45 min. Cysteine alkylation was then performed with 50 mM iodoacetamide (IAA) in a washing solution for 25 min at room temperature in the dark. The gel pieces were washed twice with washing solution for 5 min at room temperature. The reduction and alkylation steps were omitted for samples from 2D-PAGE experiments. […] Gradient for identification of proteins from 1D-PAGE: initial, 0.5% eluant B (0.1% formic acid (FA) in acetonitrile); 1 min, 0.5% eluant B; 45 min, 60% eluant B; 48 min, 90% eluant B; 49 min, 99% eluant B; 51 min, 99% eluant B; 52 min, 0.5% eluant B; 60 min, 0.5% eluant B. 0.1% FA in water served as eluent A. Gradient for the identification of proteins from 2D-PAGE: initial, 0.5% eluent B; 22 min, 50% eluent B; 23 min, 99% eluent B; 26 min, 99% eluent B; 27 min, 0.5% eluent B; 30 min, 0.5% eluent B. Continuous MS^E spectra were recorded in a mass range of 50-1200 m/z and with a scanning time of […] in positive resolution mode with the following settings: Capillary voltage, 1.7 kV; cone voltage, 30 V; source temperature, 100° C.; cone gas flow, 50 l/h; desolvation gas flow, 500 l/h; desolvation temperature, 150° C. […] For protein identification, a database with 4180 proteins of B. subtilis was used (NCBI reference sequence: NC_000964.3, manually added: trypsin, keratin, quantification standard PhosB). […]

CNC(=O)C[C@@H]1NC(=O)c2csc(n2)-c2ccc(-c3nc(C4=N[C@H](C(=O)N5CCC[C@H]5C(N)=O)CO4)cs3)nc2-c2csc(n2)-c2csc(n2)[C@H]([C@@H](O)c2ccccc2)NC(=O)CNC(=O)c2nc(sc2COC)[C@H](C(C)C)NC(=O)c2nc1sc2C [GE2270 A]
protein biosynthesis compared to control conditions: −65%

C=C(NC(=O)c1csc(-c2nc3c(cc2O)-c2nc(cs2)C(=O)N[C@@H]([C@@H](C)O)C(=O)N/C(=C(\C)OC)c2nc(cs2)C(=O)N[C@@H]2c4nc(cs4)C(=O)N[C@@H](COC(=O)c4c5c6c(cccc6n4O)COC(=O)[C@@H](O[C@H]4C[C@](C)(O)[C@H](N(C)C)[C@H](C)O4)[C@H]2OC5)c2nc-3cs2)n1)C(N)=O.O=C(O)C(F)(F)F [nocathiacin I]
protein biosynthesis compared to control conditions: −15%

kirromycin
protein biosynthesis compared to control conditions: not affected
